Key:
soybean [1] = test: Soil treatment test for upland field (Test Example 2): phytotoxicity to soybean; type: in vivo; settings: soil treatment before germination, examined after 3 weeks; further: key: 0: normal growth; 1: little damaged; 2: low damaged; 3: medium damaged; 4: serious damaged; 5: complete killed
[2] = test system: velvetleaf (Abutilon theophrasti); test: Soil treatment test for upland field (Test Example 2): velvetleaf; type: in vivo; settings: soil treatment before germination, examined after 3 weeks
Method in brief: (§1)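 Pre-emergence soil spray: wettable powder diluted in water, applied at 15 L/are to seeded upland soil in 1/3,000 are pots. Glasshouse, avg 25° C, 3 wk. Score 0–5 by % growth inhibition vs untreated (0: <20%; 5: 100%).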

common lambsquaters = test: Foliage treatment test for upland field (Test Example 3): common lambsquaters; type: in vivo; settings: foliage treatment at 1.0-2.0 leaf stage of southern crabgrass, examined after 3 weeks
Method in brief: (§2)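 Wettable powders diluted to the prescribed dose and sprayed at 15 L/are at the 1.0-2.0 leaf stage of southern crabgrass on glasshouse-grown plants (25° C average). Effect graded 0-5 after 3 weeks from growth inhibition versus untreated control (0: <20% to 5: 100%).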

rice plant = test: Weed control test for paddy field (Test Example 1): phytotoxicity to rice plant; type: in vivo; settings: paddy pots, treated at 1.0 leaf stage of barnyard grass, examined after 3 weeks
Method in brief: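 Rice transplanted at 2.0 leaf stage into flooded paddy soil pots (3 cm water) sown with weeds. Wettable powder applied dropwise at a prescribed active ingredient dose per are at 1.0 leaf stage of barnyard grass. Kept 3 weeks in glasshouse at 25 °C. Phytotoxicity scored 0 (normal) to 5 (killed) against untreated control.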

[3] = test system: slender amaranth (Amaranthus viridis); test: Soil treatment test for upland field (Test Example 2): slender amaranth; type: in vivo; settings: soil treatment before germination, examined after 3 weeks
Method in brief: as §1

[4] = test system: barnyard grass (Echinochloa crusgalli); test: Weed control test for paddy field (Test Example 1): barnyard grass; type: in vivo; settings: paddy pots, treated at 1.0 leaf stage of barnyard grass, examined after 3 weeks
Method in brief: (§3)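 Paddy-soil pots flooded to 3 cm, seeded with weeds and transplanted with 2.0-leaf rice. Wettable-powder formulations diluted in water and applied dropwise at a prescribed active-ingredient dose per are at barnyard grass 1.0-leaf stage. After 3 weeks in a 25 °C glasshouse, growth inhibition versus untreated control scored 0–5 (0: <20%; 5: 100%).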

southern crabgrass = test: Foliage treatment test for upland field (Test Example 3): southern crabgrass; type: in vivo; settings: foliage treatment at 1.0-2.0 leaf stage of southern crabgrass, examined after 3 weeks
Method in brief: as §2

[5] = test system: common lambsquaters (Chenopodium album); test: Soil treatment test for upland field (Test Example 2): common lambsquaters; type: in vivo; settings: soil treatment before germination, examined after 3 weeks
Method in brief: as §1

common purslane = test: Foliage treatment test for upland field (Test Example 3): common purslane; type: in vivo; settings: foliage treatment at 1.0-2.0 leaf stage of southern crabgrass, examined after 3 weeks
Method in brief: as §2

wheat [6] = test: Soil treatment test for upland field (Test Example 2): phytotoxicity to wheat; type: in vivo; settings: soil treatment before germination, examined after 3 weeks; further: key: 0: normal growth; 1: little damaged; 2: low damaged; 3: medium damaged; 4: serious damaged; 5: complete killed
soybean [7] = test: Foliage treatment test for upland field (Test Example 3): phytotoxicity to soybean; type: in vivo; settings: foliage treatment at 1.0-2.0 leaf stage of southern crabgrass, examined after 3 weeks; further: key: 0: normal growth; 1: little damaged; 2: low damaged; 3: medium damaged; 4: serious damaged; 5: complete killed
Method in brief: (§4)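 Crops sown in compost-mixed soil pots, kept in a glasshouse at 25° C. average. Effect scored after 3 weeks versus untreated control on a 0–5 scale (0 normal growth, 5 complete kill).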

[8] = test system: Monochoria (Monochoria vaginalis); test: Weed control test for paddy field (Test Example 1): Monochoria; type: in vivo; settings: paddy pots, treated at 1.0 leaf stage of barnyard grass, examined after 3 weeks
Method in brief: as §3

corn [9] = test: Soil treatment test for upland field (Test Example 2): phytotoxicity to corn; type: in vivo; settings: soil treatment before germination, examined after 3 weeks; further: key: 0: normal growth; 1: little damaged; 2: low damaged; 3: medium damaged; 4: serious damaged; 5: complete killed
[10] = test system: southern crabgrass (Digitaria ciliaris); test: Soil treatment test for upland field (Test Example 2): southern crabgrass; type: in vivo; settings: soil treatment before germination, examined after 3 weeks
Method in brief: as §1

[11] = test system: flat sedge (Cyperus serotinus); test: Weed control test for paddy field (Test Example 1): flat sedge; type: in vivo; settings: paddy pots, treated at 1.0 leaf stage of barnyard grass, examined after 3 weeks
Method in brief: as §3

slender amaranth = test: Foliage treatment test for upland field (Test Example 3): slender amaranth; type: in vivo; settings: foliage treatment at 1.0-2.0 leaf stage of southern crabgrass, examined after 3 weeks
Method in brief: as §2

[12] = test system: Japanese bulrush (Scirpus juncoides); test: Weed control test for paddy field (Test Example 1): Japanese bulrush; type: in vivo; settings: paddy pots, treated at 1.0 leaf stage of barnyard grass, examined after 3 weeks
Method in brief: as §3

[13] = test system: common purslane (Portulaca oleracea); test: Soil treatment test for upland field (Test Example 2): common purslane; type: in vivo; settings: soil treatment before germination, examined after 3 weeks
Method in brief: as §1

wheat [14] = test: Foliage treatment test for upland field (Test Example 3): phytotoxicity to wheat; type: in vivo; settings: foliage treatment at 1.0-2.0 leaf stage of southern crabgrass, examined after 3 weeks
Method in brief: as §4

corn [15] = test: Foliage treatment test for upland field (Test Example 3): phytotoxicity to corn; type: in vivo; settings: foliage treatment at 1.0-2.0 leaf stage of southern crabgrass, examined after 3 weeks
Method in brief: as §4

velvetleaf = test: Foliage treatment test for upland field (Test Example 3): velvetleaf; type: in vivo; settings: foliage treatment at 1.0-2.0 leaf stage of southern crabgrass, examined after 3 weeks
Method in brief: as §2

With FC(F)(F)COC/C(=C\c1cccc(C(F)(F)F)c1)c1nc2cc(C(F)(F)F)ccc2o1 [Compound 85, (E)-2-(5-trifluoromethylbenzoxazol-2-yl)-1-(3-trifluoromethylphenyl)-3-(2,2,2-trifluoroethoxy)propene] the Phytotoxicity soybean (soybean [1]; dose 2.5 g ai/a) was 0, the Phytotoxicity soybean (soybean [1]; dose 5 g ai/a) was 0 and the “Herbicidal Effect velvetleaf” value ([2]; dose 2.5 g ai/a) was 5 (100%). The “Herbicidal Effect velvetleaf” value ([2]; dose 5 g ai/a) was 5 (100%), the “Herbicidal Effect Common lambsquatters” value (common lambsquaters; dose 2.5 g ai/a) was 5 (100%) and the “Herbicidal Effect Common lambsquatters” value (common lambsquaters; dose 5 g ai/a) was 5 (100%). For the same compound, the “Phytotoxicity Rice plant” value (rice plant; dose 2.5 g ai/a) was 0, the “Phytotoxicity Rice plant” value (rice plant; dose 5 g ai/a) was 0 and the “Herbicidal Effect slender amaranth” value ([3]; dose 2.5 g ai/a) was 5 (100%). The “Herbicidal Effect slender amaranth” value ([3]; dose 5 g ai/a) was 5 (100%), the “Herbicidal Effect Barnyard grass” value ([4]; dose 2.5 g ai/a) was 4 (80%-less than 100%) and the “Herbicidal Effect Barnyard grass” value ([4]; dose 5 g ai/a) was 5 (100%). The “Herbicidal Effect southern crabgrass” value (southern crabgrass; dose 2.5 g ai/a) was 5 (100%), the “Herbicidal Effect southern crabgrass” value (southern crabgrass; dose 5 g ai/a) was 5 (100%) and the “Herbicidal Effect common lambsquaters” value ([5]; dose 2.5 g ai/a) was 5 (100%). The “Herbicidal Effect common lambsquaters” value ([5]; dose 5 g ai/a) was 5 (100%), the “Herbicidal Effect common purslane” value (common purslane; dose 2.5 g ai/a) was 5 (100%) and the “Herbicidal Effect common purslane” value (common purslane; dose 5 g ai/a) was 5 (100%). It also gave a Phytotoxicity wheat (wheat [6]; dose 2.5 g ai/a) of 0, a Phytotoxicity wheat (wheat [6]; dose 5 g ai/a) of 0 and a Phytotoxicity soybean (soybean [7]; dose 2.5 g ai/a) of 2. The Phytotoxicity soybean (soybean [7]; dose 5 g ai/a) was 2, the “Herbicidal Effect Monochoria vaginalis” value ([8]; dose 2.5 g ai/a) was 5 (100%) and the “Herbicidal Effect Monochoria vaginalis” value ([8]; dose 5 g ai/a) was 5 (100%). The Phytotoxicity corn (corn [9]; dose 2.5 g ai/a) was 0, the Phytotoxicity corn (corn [9]; dose 5 g ai/a) was 0 and the “Herbicidal Effect southern crabgrass” value ([10]; dose 2.5 g ai/a) was 5 (100%). For the same compound, the “Herbicidal Effect southern crabgrass” value ([10]; dose 5 g ai/a) was 5 (100%), the “Herbicidal Effect Flat sedge” value ([11]; dose 2.5 g ai/a) was 3 (60%-less than 80%) and the “Herbicidal Effect Flat sedge” value ([11]; dose 5 g ai/a) was 4 (80%-less than 100%). For the same compound, the “Herbicidal Effect slender amaranth” value (slender amaranth; dose 2.5 g ai/a) was 5 (100%), the “Herbicidal Effect slender amaranth” value (slender amaranth; dose 5 g ai/a) was 5 (100%) and the melting point was 86 to 89 °C. For the same compound, the “Herbicidal Effect Japanese bulrush” value ([12]; dose 2.5 g ai/a) was 4 (80%-less than 100%), the “Herbicidal Effect Japanese bulrush” value ([12]; dose 5 g ai/a) was 5 (100%) and the “Herbicidal Effect common purslane” value ([13]; dose 2.5 g ai/a) was 5 (100%). The “Herbicidal Effect common purslane” value ([13]; dose 5 g ai/a) was 5 (100%), the Phytotoxicity wheat (wheat [14]; dose 2.5 g ai/a) was 1 and the Phytotoxicity wheat (wheat [14]; dose 5 g ai/a) was 1. The Phytotoxicity corn (corn [15]; dose 2.5 g ai/a) was 1, the Phytotoxicity corn (corn [15]; dose 5 g ai/a) was 1 and the “Herbicidal Effect velvetleaf” value (velvetleaf; dose 2.5 g ai/a) was 5 (100%). The “Herbicidal Effect velvetleaf” value (velvetleaf; dose 5 g ai/a) was 5 (100%).

Source: patent US20080058213A1, “Benzoxazole Compounds” (priority 2004, published 2008)
